The numbers were not newly measured in patent publication US20100273186A1, “SPLIT MUTANT HYDROLASE FUSION REPORTER AND USES THEREOF” (Promega Corporation, priority 2007, published 2010), which cites them from elsewhere.

The data set relates to Photinus pyralis luciferase.

Take LRRASLG: the “reduction of activity on addition of cyclic AMP dependent protein kinase catalytic subunit” value (Waud et al.) is 30%.

For “RRFS: Photinus pyralis luciferase mutant, V217R generating site RRFS (SEQ ID NO:11), Sala-Newby et al.”, the “decrease of activity when phosphorylated” value (Sala-Newby et al.) was “up to 80%”.
